The source of these data is BindingDB's records for doi:10.7270/Q2TX3CTT (Broad Institute, 2010).

Each structure is given as a SMILES string. Structures can show the parent of a compound that is named as a salt. Some results are limits rather than exact numbers.

As a reminder, the EC50 is the concentration that produces a half-maximal response. Low values mean greater potency, high ones weaker potency.

Sequence of Glycogen synthase kinase-3 beta (P49841 whole entry): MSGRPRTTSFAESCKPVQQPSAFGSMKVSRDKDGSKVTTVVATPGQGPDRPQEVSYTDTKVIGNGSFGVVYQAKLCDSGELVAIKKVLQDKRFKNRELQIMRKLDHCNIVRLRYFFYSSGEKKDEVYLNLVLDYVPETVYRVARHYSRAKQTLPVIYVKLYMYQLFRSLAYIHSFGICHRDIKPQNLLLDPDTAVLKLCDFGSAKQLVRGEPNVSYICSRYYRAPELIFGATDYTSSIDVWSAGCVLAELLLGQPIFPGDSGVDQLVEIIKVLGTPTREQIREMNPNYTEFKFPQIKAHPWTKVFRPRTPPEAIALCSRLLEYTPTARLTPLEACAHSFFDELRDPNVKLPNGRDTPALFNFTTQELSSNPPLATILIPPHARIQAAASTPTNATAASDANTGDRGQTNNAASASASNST

This assay has as its target Glycogen synthase kinase-3 beta (Homo sapiens, UniProt P49841). In words: GSK3beta kinase inhibitor potency, dose response, biochemical, luminescence, cell-free homogeneous, retest (AID 434954).
For `COc1cccc2cc(C(=O)NCc3ccc(C)cc3)c(=O)oc12` [8-methoxy-N-(4-methylbenzyl)-2-oxo-2H-chromene-3-carboxamide], the EC50 is greater than 300 µM. The compound `Cc1ccc(C(OCCN(C)C)c2cccc(C(F)(F)F)c2)cc1` (stereo not drawn) [(Z)-but-2-enedioic acid;N,N-dimethyl-2-[(4-methylphenyl)-[3-(trifluoromethyl)phenyl]methoxy]ethanamine] came in with an EC50 greater than 300 µM. The compound `CC(C)CCSc1nnc(N)s1` [MLS000861787] yielded an EC50 greater than 300 µM.

The compound `CC1(C)CC(=O)C2C(=Nc3[nH]c(=S)[nH]c(=O)c3C2c2ccccc2)C1` (stereo not drawn) [8,8-dimethyl-5-phenyl-2-sulfanylidene-5,7,9,10-tetrahydro-1H-pyrimido[4,5-b]quinoline-4,6-dione] yielded an EC50 greater than 300 µM. On to `Cc1ccc2nc(-c3ccccc3)cn2c1` [6-methyl-2-phenyl-imidazo[1,2-a]pyridine;hydrobromide], for which the EC50 is 29 µM. In other words, the double-digit micromolar range. To `COC(=O)c1cn(NC(=O)c2cccnc2)c(=O)c2ccccc12` [1-keto-2-nicotinamido-isoquinoline-4-carboxylic acid methyl ester] belongs greater than 300 µM; to `C[C@]12C=CC(=O)C=C1CC[C@@H]1C2C(O)C[C@@]2(C)C1CC[C@]2(O)C(=O)COC(=O)CCC(=O)O` (stereo partly drawn) [4-[2-[(8S,10R,11S,13S,17R)-11,17-dihydroxy-10,13-dimethyl-3-oxo-7,8,9,11,12,14,15,16-octahydro-6H-cyclopenta[a]phenanthren-17-yl]-2-oxoethoxy]-4-oxobutanoic acid], greater than 300 µM; to `CC(OC(=O)c1nsc(Cl)c1Cl)C(=O)NCc1ccco1` (stereo not drawn) [MLS000074009], greater than 100 µM. Compound `O=[N+]([O-])c1ccccc1[CH+][N-]n1c(C2CCCCC2)n[nH]c1=S` [5-Cyclohexyl-4-{[1-(2-nitro-phenyl)-meth-(E)-ylidene]-amino}-4H-[1,2,4]triazole-3-thiol] displayed an EC50 of 155 µM. In the case of `CCN(CC)C(=O)CSc1nc(N)c(C#N)c(-c2cccs2)c1C#N` [SMR000115110], the EC50 was greater than 300 µM. In the case of `CCCc1cc(=O)[nH]c2nnc(SCC(=O)Nc3nccs3)n12` [2-[(7-oxidanylidene-5-propyl-1H-[1,2,4]triazolo[4,3-a]pyrimidin-3-yl)sulfanyl]-N-(1,3-thiazol-2-yl)ethanamide], the EC50 was greater than 300 µM. To `CCNc1nc(N)c(C(=O)c2ccc(Cl)s2)s1` [[4-amino-2-(ethylamino)-1,3-thiazol-5-yl]-(5-chlorothiophen-2-yl)methanone] belongs 0.174 µM; to `COc1ccc(OC)c(Nc2nc(N)c([N+](=O)[O-])c(NC3CCCCC3)n2)c1` [N4-cyclohexyl-N2-(2,5-dimethoxyphenyl)-5-nitropyrimidine-2,4,6-triamine], greater than 300 µM; to `COc1ccc(CN(CC(=O)NCCc2ccccc2)C(=O)CCC(=O)Nc2ccccn2)cc1` [N'-[(4-methoxyphenyl)methyl]-N'-[2-oxo-2-(2-phenylethylamino)ethyl]-N-pyridin-2-ylbutanediamide], greater than 300 µM. Compound `NC(=S)c1cn(C2OC(CO)C(O)C2O)c2ncnc(N)c12` (stereo not drawn) [4-amino-7-[3,4-dihydroxy-5-(hydroxymethyl)oxolan-2-yl]pyrrolo[2,3-d]pyrimidine-5-carbothioamide] registered an EC50 of 12 µM. Compound `COc1ccc(CN(CC(=O)NCc2ccccc2)C(=O)CCC(=O)Nc2nccs2)cc1` returned an EC50 greater than 300 µM. For the compound `Cc1cc(C(=O)c2ccccc2)c(NC(=O)CN2CCOCC2)s1` [N-[5-methyl-3-(phenylcarbonyl)thiophen-2-yl]-2-morpholin-4-yl-ethanamide], the EC50 is greater than 300 µM. In turn, `CC(C(=O)Nc1nc2ccccc2s1)n1cc([N+](=O)[O-])cn1` (stereo not drawn) [SMR000307349] came in with an EC50 greater than 300 µM. As to `Cc1ccc(Nc2nc(N)c([N+](=O)[O-])c(NCCO)n2)cc1C` [SMR000436043], the EC50 was 14.6 µM. In turn, `N#CC(=Cc1c[nH]nc1-c1ccc(Br)cc1)C(=O)O` [(Z)-3-[5-(4-bromophenyl)-1H-pyrazol-4-yl]-2-cyanoprop-2-enoic acid] showed an EC50 greater than 300 µM. To `O=C(c1cc(COc2ccc(F)cc2F)on1)N1CCCC(c2ccccc2)C1` (stereo not drawn) [[5-[[2,4-bis(fluoranyl)phenoxy]methyl]-1,2-oxazol-3-yl]-(3-phenylpiperidin-1-yl)methanone] belongs greater than 300 µM; to `CCCNC(=O)c1ccc(SCC(=O)N(CC)CC)c([N+](=O)[O-])c1`, greater than 300 µM. The compound `Cn1cc([CH+][N-]NC(=O)COc2ccccc2[N+](=O)[O-])c2ccccc21` [N-[(1-methylindol-3-yl)methylideneamino]-2-(2-nitrophenoxy)acetamide] gave an EC50 greater than 300 µM. The figure for `O=C(CCc1ccccc1)Nc1cccc([N+](=O)[O-])c1` [MLS000856399] is greater than 300 µM; for `CCn1c(/C=C/N(C)c2ccccc2)[n+](CC)c2cc(Cl)ccc21` [SMR000173749] it is greater than 300 µM. `CN1CCN(c2nc(-c3ccccc3)nc(-c3ccccc3)c2C#N)CC1` [4-(4-methylpiperazin-1-yl)-2,6-diphenyl-pyrimidine-5-carbonitrile] returned an EC50 greater than 300 µM. On to `Cc1cc(NC(=O)CSc2ccc3nnc(-c4ccc(F)cc4)n3n2)no1` [2-{[3-(4-fluorophenyl)[1,2,4]triazolo[4,3-b]pyridazin-6-yl]thio}-N-(5-methylisoxazol-3-yl)acetamide], for which the EC50 is greater than 300 µM. For the compound `CCOC(=O)c1ccc(NC(=O)CSc2nnc(C3CC3)n2CC)cc1` [MLS000121467], the EC50 was greater than 300 µM. Turning to `CNc1nc(N)c([N+](=O)[O-])c(NC2CCCCC2)n1` [4-N-cyclohexyl-2-N-methyl-5-nitropyrimidine-2,4,6-triamine], the midpoint of the response, the EC50, lay at 7.52 µM. Compound `COc1ccc(CCNC(=O)CN2CCOc3ccccc32)cc1OC` [2-(2,3-dihydro-1,4-benzoxazin-4-yl)-N-[2-(3,4-dimethoxyphenyl)ethyl]acetamide] gave an EC50 greater than 300 µM.

For the compound `COc1cccc(CN=Nc2cc(Cl)nc(C)n2)c1O` [SMR000274053], the EC50 was greater than 300 µM.

Compound `Cc1cc(C)c(NC(=O)c2ccc(S(=O)(=O)N3CCOCC3)cc2)c(C)c1` [MLS000100511] showed an EC50 greater than 300 µM. In turn, `Nc1nc(NCC2CCCO2)nc(Nc2ccccc2)c1[N+](=O)[O-]` (stereo not drawn) [5-nitro-2-N-(oxolan-2-ylmethyl)-4-N-phenylpyrimidine-2,4,6-triamine] gave an EC50 of 2.17 µM. That is a single-digit micromolar value. `COc1ccc(-c2nn(-c3ccccc3)cc2C=O)cc1[N+](=O)[O-]` [MLS001163277] had an EC50 greater than 300 µM. As to `O=NCc1ccc(Oc2ccc(F)cc2)c([N+](=O)[O-])c1` [N-[[4-(4-fluorophenoxy)-3-nitrophenyl]methylidene]hydroxylamine], a half-maximal effect (EC50) was put at 23 µM. As to `COc1cccc2cc(CC(=O)c3cc(C)ccc3C)c(=O)oc12` [MLS001198676], the EC50 was greater than 300 µM. Consider `COCCn1c(SCC(=O)Nc2ccc(Cl)cn2)nc2ccccc21` [N-(5-chloropyridin-2-yl)-2-[1-(2-methoxyethyl)benzimidazol-2-yl]sulfanylacetamide], for which the midpoint of the response, the EC50, lay at 3.82 µM. The compound `NNc1ncnc2c1cnn2-c1ccccc1` [(1-phenylpyrazolo[3,4-d]pyrimidin-4-yl)diazane] showed an EC50 of 12.8 µM.

For `Cc1ccc(C2c3c(C)noc3N=C3CC(C)(C)CC(=O)C32)cc1` (stereo not drawn) [MLS000568466], the EC50 was greater than 300 µM.

In the case of `CC(C)(C)c1ccc(OCC(=O)NCCN2CCCC2)cc1` [2-(4-tert-butylphenoxy)-N-(2-pyrrolidin-1-ylethyl)ethanamide;hydrochloride], the EC50 is greater than 300 µM. Compound `Cc1cccc(-c2nnc(SCc3ccccc3)o2)c1` [MLS000067803] returned an EC50 greater than 300 µM. The figure for `CCC(C)NC(=O)CNC(=S)N(CCCN1CCOCC1)Cc1cccs1` (stereo not drawn) [N-butan-2-yl-2-[[3-morpholin-4-ylpropyl(thiophen-2-ylmethyl)carbamothioyl]amino]ethanamide] is greater than 300 µM; for `CCC(=O)n1nc(-c2ccc(OC)cc2)nc1N` [MLS000043495] it is greater than 300 µM. In turn, `COc1ccc(CC(=O)N2C[C@H]3C[C@@H](C2)c2cccc(=O)n2C3)cc1` [SMR000646314] displayed an EC50 greater than 300 µM.

For `Nc1nc(NCc2ccc(Cl)cc2)nc(NCCO)c1[N+](=O)[O-]` [SMR000436738], the midpoint of the response, the EC50, lay at 13.6 µM. As for `CC(c1ccccc1)n1c(CCCO)nc2ccccc21` (stereo not drawn) [3-[1-(1-Phenyl-ethyl)-1H-benzoimidazol-2-yl]-propan-1-ol], the EC50 is greater than 300 µM. Turning to `COCCN(CCOC)Cc1c(O)ccc2c1O/C(=C\c1ccco1)C2=O` [SMR000544009], the EC50 is greater than 300 µM.

`CCCc1cc(O)c2c(C)cc(=O)oc2c1` [5-hydroxy-4-methyl-7-propyl-1-benzopyran-2-one] yielded an EC50 greater than 300 µM. `Cc1cccn2c(=O)nc(SCC(=O)NC3CCCCC3)nc12` showed an EC50 greater than 300 µM. In the case of `CSCCC(C(=O)NCc1cccs1)N1C(=O)c2ccccc2C1=O` (stereo not drawn) [SMR000150898], the EC50 is greater than 300 µM.

As to `Cc1ccc(S(=O)(=O)NNC(=O)c2cccc(O)c2)cc1` [3-hydroxy-N'-(4-methylphenyl)sulfonylbenzohydrazide], the EC50 was greater than 300 µM. To `CCOc1cc(C=NN=C(N)N)ccc1OCc1ccc(Cl)cc1` [N''-{4-[(4-chlorobenzyl)oxy]-3-ethoxybenzylidene}carbonohydrazonic diamide] belongs greater than 300 µM; to `CCN1CCN(c2nc(N)c([N+](=O)[O-])c(Nc3cccc(C)c3)n2)CC1` [2-(4-ethylpiperazin-1-yl)-4-N-(3-methylphenyl)-5-nitropyrimidine-4,6-diamine], greater than 300 µM; to `CCn1c(SCC(=O)Nc2ccc(Cl)cc2)nnc1C1CC1` [MLS000115911], greater than 300 µM.

Turning to `O=C(CN(Cc1cccs1)C(=O)CCC(=O)Nc1ccccn1)NCc1ccccc1` [N'-[2-oxo-2-[(phenylmethyl)amino]ethyl]-N-(2-pyridinyl)-N'-(thiophen-2-ylmethyl)butanediamide], the EC50 is greater than 300 µM. `CCN1C(=O)/C(=N\NC(=O)C(O)c2ccccc2)c2ccccc21` (stereo not drawn) [SMR000414657] returned an EC50 of 32.4 µM. Consider `CC1=Nc2ncnn2C(c2cccnc2)C1C(=O)OCc1ccccc1` (stereo not drawn) [(phenylmethyl) 5-methyl-7-pyridin-3-yl-1,7-dihydro-[1,2,4]triazolo[1,5-a]pyrimidine-6-carboxylate], for which the EC50 came to 28 µM. With `OCCCNc1cc(-c2ccnc(Nc3cccc(Cl)c3)n2)ccn1`, a half-maximal response (EC50) required 0.212 µM.
